Source: ChEMBL document CHEMBL5620416, “Design, synthesis and development of a dual inhibitor of Topoisomerase 1 and poly (ADP-ribose) polymerase 1 for efficient killing of cancer cells” (Eur J Med Chem, 2023)
Activity calls are given as the source filed them. The rule behind the calls is not given here.

Assays:
[1] = Stability in human plasma assessed as compound degradation incubated for 15 mins by HPLC analysis; type: ADME, cell-free; settings: read-out: Drug degradation
[2] = test system: Calf thymus DNA; assay: Binding affinity to calf thymus pUC19 DNA assessed as intercalating activity by measuring conformational change in DNA at 50 to 300 uM incubated for 30 mins by EtBr staining based agarose gel electrophoresis; type: nucleic-acid assay; settings: Bos taurus, dose 50-300 µM
[3] = test system: HCT-116; assay: Cytotoxicity against human HCT-116 cells incubated for 72 hrs by MTT assay; type: functional, cell-based; settings: HCT-116, 72 h
[4] = test system: MIA PaCa-2; assay: Cytotoxicity against human MIA PaCa-2 cells incubated for 72 hrs by MTT assay; type: functional, cell-based; settings: MIA PaCa-2, 72 h
[5] = test system: PANC-1; assay: Cytotoxicity against human PANC-1 cells incubated for 72 hrs by MTT assay; type: functional, cell-based; settings: PANC-1, 72 h
[6] = test system: MCF-10A; assay: Cytotoxicity against human MCF-10A cells at 50 uM incubated for 72 hrs by MTT assay; type: toxicity, cell-based
[7] = test system: HCT-116; assay: Cytotoxicity against human HCT-116 cells at less than 10 uM incubated for 7 to 10 days by crystal violet staining based assay; type: functional, cell-based; settings: time 7-10 day
[8] = test system: MIA PaCa-2; assay: Cytotoxicity against human MIA PaCa-2 cells at less than 10 uM incubated for 7 to 10 days by crystal violet staining based assay; type: functional, cell-based; settings: time 7-10 day
[9] = test system: PANC-1; assay: Cytotoxicity against human PANC-1 cells at less than 10 uM incubated for 7 to 10 days by crystal violet staining based assay; type: functional, cell-based; settings: time 7-10 day
[10] = test system: HCT-116; assay: Induction of cell cycle arrest in human HCT-116 cells at 5 to 20 uM by PI staining based flow cytometry analysis; type: functional; settings: dose 5-20 µM, time 24-48 hrs, TDE = time-dependent effect
[11] = test system: HCT-116; assay: Induction of cell cycle arrest in human HCT-116 cells assessed as accumulation of cells at S phase at 5 uM incubated for 48 hrs by PI staining based flow cytometry analysis (reference value: 17%); type: functional
[12] = test system: HCT-116; assay: Induction of cell cycle arrest in human HCT-116 cells assessed as accumulation of cells at S phase at 20 uM incubated for 48 hrs by PI staining based flow cytometry analysis (reference value: 17%); type: functional
[13] = test system: HCT-116; assay: Induction of cell cycle arrest in human HCT-116 cells assessed as accumulation of cells at G2 phase at 5 uM incubated for 48 hrs by PI staining based flow cytometry analysis (reference value: 26%); type: functional
[14] = test system: HCT-116; assay: Induction of cell cycle arrest in human HCT-116 cells assessed as accumulation of cells at G2 phase at 20 uM incubated for 48 hrs by PI staining based flow cytometry analysis (reference value: 26%); type: functional
[15] = test system: HCT-116; assay: Induction of cell cycle arrest in human HCT-116 cells assessed as accumulation of cells at Sub-G1 phase at 5 uM incubated for 24 hrs by PI staining based flow cytometry analysis (reference value: 1.1 +/- 0.1%); type: functional
[16] = test system: HCT-116; assay: Induction of cell cycle arrest in human HCT-116 cells assessed as accumulation of cells at Sub-G1 phase at 10 uM incubated for 24 hrs by PI staining based flow cytometry analysis (reference value: 1.1 +/- 0.1%); type: functional
[17] = test system: HCT-116; assay: Induction of cell cycle arrest in human HCT-116 cells assessed as accumulation of cells at Sub-G1 phase at 20 uM incubated for 48 hrs by PI staining based flow cytometry analysis (reference value: 2.7 +/- 0.4%); type: functional
[18] = test system: HCT-116; assay: Induction of DNA double stranded break in human HCT-116 cells assessed as increase in gammaH2AX level at 20 uM after 4 to 8 hrs by immunofluorescence assay; type: functional, cell-based; settings: time 4-8 hrs
[19] = test system: HCT-116; assay: Induction of DNA double stranded break in human HCT-116 cells assessed as increase in 53BP1 level at 20 uM after 4 to 8 hrs by immunofluorescence assay; type: functional, cell-based; settings: time 4-8 hrs
[20] = target: T1, DNA topoisomerase 1 (Homo sapiens) (UniProt P11387); assay: Inhibition of recombinant human Top1 assessed as reduction in plasmid relaxation at 10 to 20 uM using pUC19 plasmid DNA as substrate measured upto 30 mins by ethidium bromide staining based assay; settings: dose 10-20 µM
T1 sequence (whole entry): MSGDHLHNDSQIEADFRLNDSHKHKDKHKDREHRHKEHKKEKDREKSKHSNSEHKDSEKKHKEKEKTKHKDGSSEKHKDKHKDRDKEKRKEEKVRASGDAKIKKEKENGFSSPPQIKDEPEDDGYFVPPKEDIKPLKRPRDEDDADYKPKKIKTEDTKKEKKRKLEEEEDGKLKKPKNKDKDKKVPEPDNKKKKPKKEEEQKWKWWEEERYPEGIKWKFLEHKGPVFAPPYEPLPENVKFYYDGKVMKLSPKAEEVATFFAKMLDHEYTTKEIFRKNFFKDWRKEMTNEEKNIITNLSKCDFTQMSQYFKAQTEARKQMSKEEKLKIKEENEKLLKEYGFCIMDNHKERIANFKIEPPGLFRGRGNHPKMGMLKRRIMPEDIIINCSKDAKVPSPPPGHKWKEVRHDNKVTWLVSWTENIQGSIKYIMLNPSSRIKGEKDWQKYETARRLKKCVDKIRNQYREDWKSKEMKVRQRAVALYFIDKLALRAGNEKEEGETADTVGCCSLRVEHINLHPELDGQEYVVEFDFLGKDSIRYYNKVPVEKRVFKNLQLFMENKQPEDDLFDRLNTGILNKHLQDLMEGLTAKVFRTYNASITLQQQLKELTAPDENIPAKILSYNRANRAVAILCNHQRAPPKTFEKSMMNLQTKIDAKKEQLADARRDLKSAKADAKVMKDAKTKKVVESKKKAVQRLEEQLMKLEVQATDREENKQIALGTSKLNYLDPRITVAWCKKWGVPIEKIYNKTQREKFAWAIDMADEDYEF

[21] = test system: DNA topoisomerase 1/Deoxyribonucleic acid (Homo sapiens); assay: Induction of TOP1-DNA covalent complex stabilization in human HCT-116 cells at 20 uM by immunofluorescence microscopic assay; type: cell-based; settings: time 2-8 hrs, TDE = time-dependent effect
[22] = target: Poly [ADP-ribose] polymerase 1 (Homo sapiens) (UniProt P09874); assay: Inhibition of recombinant human PARP1 incubated for 10 mins; settings: dose 10-30 µM
[23] = target: Poly [ADP-ribose] polymerase 1 (Homo sapiens) (UniProt P09874); assay: Inhibition of recombinant human PARP1 at 20 uM incubated for 10 mins relative to control
[24] = test system: HCT-116; assay: Induction of PARylation in human HCT-116 cells at 20 uM incubated for 2 to 8 hrs by Western blotting analysis; type: functional, cell-based; settings: time 2-8 hrs
[25] = test system: HCT-116; assay: Induction of PARylation in human HCT-116 cells at 1 uM incubated for 4 hrs by Western blotting analysis; type: functional, cell-based
[26] = test system: HCT-116; assay: Induction of PARP1 trapping in human HCT-116 cells assessed as change in PARP1 level in chromatin fraction at 20 uM incubated for 4 to 8 hrs by SDS PAGE analysis; type: functional, cell-based; settings: time 4-8 hrs
[27] = target: T1, DNA topoisomerase 1 (Homo sapiens); assay: Induction of TOP1 degradation in human HCT-116 cells at 20 uM after 2 to 24 hrs by alkaline lysis method; type: cell-based; settings: time 2-24 hrs
[28] = test system: DNA topoisomerase 1/Deoxyribonucleic acid (Homo sapiens); assay: Induction of TOP1-DNA covalent complex degradation in human HCT-116 cells at 20 uM measured upto 24 hrs by RADAR assay; type: cell-based

Chain of Poly [ADP-ribose] polymerase 1 (Homo sapiens) (P09874 whole entry): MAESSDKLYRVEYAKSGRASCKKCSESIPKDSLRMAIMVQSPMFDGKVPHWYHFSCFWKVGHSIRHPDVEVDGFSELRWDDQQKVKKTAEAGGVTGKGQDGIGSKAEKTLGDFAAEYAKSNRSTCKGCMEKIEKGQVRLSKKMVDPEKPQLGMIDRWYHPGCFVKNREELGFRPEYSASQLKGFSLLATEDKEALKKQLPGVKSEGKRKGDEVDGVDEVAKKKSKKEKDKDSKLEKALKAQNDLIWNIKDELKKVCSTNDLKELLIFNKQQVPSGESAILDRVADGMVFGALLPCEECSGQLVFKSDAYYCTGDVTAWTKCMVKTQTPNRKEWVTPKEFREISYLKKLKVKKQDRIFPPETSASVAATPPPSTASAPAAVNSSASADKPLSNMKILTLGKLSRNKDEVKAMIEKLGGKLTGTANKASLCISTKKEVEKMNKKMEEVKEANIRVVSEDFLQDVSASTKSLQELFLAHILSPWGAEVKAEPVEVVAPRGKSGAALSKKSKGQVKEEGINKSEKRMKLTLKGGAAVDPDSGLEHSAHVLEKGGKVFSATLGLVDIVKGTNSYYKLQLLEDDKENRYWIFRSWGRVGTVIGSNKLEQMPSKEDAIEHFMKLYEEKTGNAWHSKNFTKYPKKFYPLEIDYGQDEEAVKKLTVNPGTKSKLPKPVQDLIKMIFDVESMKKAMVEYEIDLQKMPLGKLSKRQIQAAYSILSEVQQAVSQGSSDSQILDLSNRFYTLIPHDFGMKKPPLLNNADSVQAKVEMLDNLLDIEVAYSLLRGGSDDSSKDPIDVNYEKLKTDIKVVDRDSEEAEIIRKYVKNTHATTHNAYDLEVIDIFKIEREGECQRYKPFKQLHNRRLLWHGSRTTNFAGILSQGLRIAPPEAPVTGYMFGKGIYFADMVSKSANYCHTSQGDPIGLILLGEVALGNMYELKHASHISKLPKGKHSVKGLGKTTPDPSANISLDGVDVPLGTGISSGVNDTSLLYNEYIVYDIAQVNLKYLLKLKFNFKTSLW

O=C1c2cccc3cccc(c23)C(=O)N1CCSc1nnc(Cn2nc(Cc3ccc(F)cc3)c3ccccc3c2=O)o1
metabolised at 0.25 h [1]: 20% | Activity [2]: inactive | IC50 [3]: 4 µM | IC50 [4]: 4.5 µM | IC50 [5]: 4 µM | Activity [6]: > 80% | Activity [7]: Active | Activity [8]: Active | Activity [9]: Active | Activity [10]: Tde | Activity [11]: 30% | Activity [12]: 39% | Activity [13]: 29% | Activity [14]: 34% | Activity [15]: 23.8% | Activity [16]: 30.8% | Activity [17]: 57% | Activity [18]: Active | Activity [19]: Active | inhibition [20]: Active | Activity [21]: Tde | inhibition [22]: Dose-Dependent Effect | inhibition [23]: 25% | Activity [24]: Active | Activity [25]: Active | Activity [26]: inactive | Activity [27]: Active | Activity [28]: Active
